# Measured values taken from PubChem BioAssay (NCI).
#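 Briefly, cells in 96-well plates were exposed to five compound concentrations for 48 h, and endpoints were estimated by linear interpolation. At the GI50, growth is halved. TGI marks complete inhibition of growth.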
# What was measured:
# Experiment in all cases: NCI tumour cell line growth inhibition, 48 h
# NCI-H23 lung = test system: NCI-H23 lung
# SF-295 CNS = test system: SF-295 CNS
# HL-60(TB) leukemia = test system: HL-60(TB) leukemia
# HT29 colon = test system: HT29 colon
# MALME-3M melanoma = test system: MALME-3M melanoma
# HS 578T breast = test system: HS 578T breast
# MOLT-4 leukemia = test system: MOLT-4 leukemia
# ACHN renal = test system: ACHN renal
# DU-145 prostate = test system: DU-145 prostate
# SK-MEL-2 melanoma = test system: SK-MEL-2 melanoma
# LOX IMVI melanoma = test system: LOX IMVI melanoma
# 786-0 renal = test system: 786-0 renal
# OVCAR-8 ovarian = test system: OVCAR-8 ovarian
# UACC-257 melanoma = test system: UACC-257 melanoma
# HCC-2998 colon = test system: HCC-2998 colon
# TK-10 renal = test system: TK-10 renal
# SN12C renal = test system: SN12C renal
# SW-620 colon = test system: SW-620 colon
# CCRF-CEM leukemia = test system: CCRF-CEM leukemia
# KM12 colon = test system: KM12 colon
# SNB-19 CNS = test system: SNB-19 CNS
# HOP-92 NSCLC = test system: HOP-92 NSCLC
# PC-3 prostate = test system: PC-3 prostate
# MDA-MB-435 = test system: MDA-MB-435
# MCF7 breast = test system: MCF7 breast
# U251 CNS = test system: U251 CNS
# HCT-15 colon = test system: HCT-15 colon
# HOP-62 NSCLC = test system: HOP-62 NSCLC
# T-47D breast = test system: T-47D breast
# SK-OV-3 ovarian = test system: SK-OV-3 ovarian
# UACC-62 melanoma = test system: UACC-62 melanoma
# RPMI-8226 leukemia = test system: RPMI-8226 leukemia
# SF-539 CNS = test system: SF-539 CNS
# SF-268 CNS = test system: SF-268 CNS
# HCT-116 colon = test system: HCT-116 colon
# OVCAR-4 ovarian = test system: OVCAR-4 ovarian
# A549 NSCLC = test system: A549 NSCLC
# NCI/ADR-RES ovarian = test system: NCI/ADR-RES ovarian
# CAKI-1 renal = test system: CAKI-1 renal
# OVCAR-5 ovarian = test system: OVCAR-5 ovarian
# M14 melanoma = test system: M14 melanoma
# NCI-H460 lung = test system: NCI-H460 lung
# NCI-H522 lung = test system: NCI-H522 lung
# BT-549 breast = test system: BT-549 breast
# OVCAR-3 ovarian = test system: OVCAR-3 ovarian
# UO-31 renal = test system: UO-31 renal
# IGROV1 ovarian = test system: IGROV1 ovarian
# RXF 393 renal = test system: RXF 393 renal
# SK-MEL-28 melanoma = test system: SK-MEL-28 melanoma
# SK-MEL-5 melanoma = test system: SK-MEL-5 melanoma
# SR leukemia = test system: SR leukemia
# K-562 leukemia = test system: K-562 leukemia
# COLO 205 colon = test system: COLO 205 colon
# NCI-H226 lung = test system: NCI-H226 lung
# MDA-MB-231 breast = test system: MDA-MB-231 breast
# SNB-75 CNS = test system: SNB-75 CNS
# A498 renal = test system: A498 renal
smiles,measurement,setting,value
C[C@@H](Nc1cc(F)cc(F)c1)c1cc(C(=O)N(C)C)cc2c(=O)cc(N3CCOCC3)oc12,GI50,NCI-H23 lung,> 87 µM
same,TGI,NCI-H23 lung,> 100 µM
same,GI50,SF-295 CNS,1.23 µM
same,TGI,SF-295 CNS,59.9 µM
same,GI50,HL-60(TB) leukemia,2.17 µM
same,TGI,HL-60(TB) leukemia,> 57.6 µM
same,GI50,HT29 colon,4.04 µM
same,TGI,HT29 colon,> 100 µM
same,GI50,MALME-3M melanoma,7.12 µM
same,TGI,MALME-3M melanoma,> 84.9 µM
same,GI50,HS 578T breast,0.693 µM
same,TGI,HS 578T breast,23.6 µM
same,GI50,MOLT-4 leukemia,2.06 µM
same,TGI,MOLT-4 leukemia,52.6 µM
same,GI50,ACHN renal,3.51 µM
same,TGI,ACHN renal,> 100 µM
same,GI50,DU-145 prostate,33.1 µM
same,TGI,DU-145 prostate,> 100 µM
same,GI50,SK-MEL-2 melanoma,25.8 µM
same,TGI,SK-MEL-2 melanoma,> 100 µM
same,GI50,LOX IMVI melanoma,8.72 µM
same,TGI,LOX IMVI melanoma,> 100 µM
same,GI50,786-0 renal,0.192 µM
same,TGI,786-0 renal,> 100 µM
same,GI50,OVCAR-8 ovarian,25.5 µM
same,TGI,OVCAR-8 ovarian,> 100 µM
same,GI50,UACC-257 melanoma,2.6 µM
same,TGI,UACC-257 melanoma,> 100 µM
same,GI50,HCC-2998 colon,10.4 µM
same,TGI,HCC-2998 colon,> 100 µM
same,GI50,TK-10 renal,2.64 µM
same,TGI,TK-10 renal,> 100 µM
same,GI50,SN12C renal,7.14 µM
same,TGI,SN12C renal,> 100 µM
same,GI50,SW-620 colon,25.1 µM
same,TGI,SW-620 colon,> 100 µM
same,GI50,CCRF-CEM leukemia,27.5 µM
same,TGI,CCRF-CEM leukemia,> 100 µM
same,GI50,KM12 colon,> 46.1 µM
same,TGI,KM12 colon,> 100 µM
same,GI50,SNB-19 CNS,10.7 µM
same,TGI,SNB-19 CNS,> 100 µM
same,GI50,HOP-92 NSCLC,< 0.0389 µM
same,TGI,HOP-92 NSCLC,13 µM
same,GI50,PC-3 prostate,0.586 µM
same,TGI,PC-3 prostate,> 100 µM
same,GI50,MDA-MB-435,8.17 µM
same,TGI,MDA-MB-435,> 100 µM
same,GI50,MCF7 breast,0.894 µM
same,TGI,MCF7 breast,99 µM
same,GI50,U251 CNS,8.58 µM
same,TGI,U251 CNS,> 100 µM
same,GI50,HCT-15 colon,14.9 µM
same,TGI,HCT-15 colon,> 100 µM
same,GI50,HOP-62 NSCLC,7.13 µM
same,TGI,HOP-62 NSCLC,> 100 µM
same,GI50,T-47D breast,0.315 µM
same,TGI,T-47D breast,6.94 µM
same,GI50,SK-OV-3 ovarian,2.18 µM
same,TGI,SK-OV-3 ovarian,> 65.3 µM
same,GI50,UACC-62 melanoma,1.13 µM
same,TGI,UACC-62 melanoma,20.9 µM
same,GI50,RPMI-8226 leukemia,36.7 µM
same,TGI,RPMI-8226 leukemia,> 100 µM
same,GI50,SF-539 CNS,3.58 µM
same,TGI,SF-539 CNS,50.3 µM
same,GI50,SF-268 CNS,22.4 µM
same,TGI,SF-268 CNS,> 100 µM
same,GI50,HCT-116 colon,10.2 µM
same,TGI,HCT-116 colon,> 100 µM
same,GI50,OVCAR-4 ovarian,26.1 µM
same,TGI,OVCAR-4 ovarian,> 100 µM
same,GI50,A549 NSCLC,7.43 µM
same,TGI,A549 NSCLC,> 100 µM
same,GI50,NCI/ADR-RES ovarian,> 83.9 µM
same,TGI,NCI/ADR-RES ovarian,> 100 µM
same,GI50,CAKI-1 renal,9.44 µM
same,TGI,CAKI-1 renal,> 100 µM
same,GI50,OVCAR-5 ovarian,4.16 µM
same,TGI,OVCAR-5 ovarian,> 100 µM
same,GI50,M14 melanoma,24.3 µM
same,TGI,M14 melanoma,> 100 µM
same,GI50,NCI-H460 lung,5.61 µM
same,TGI,NCI-H460 lung,> 100 µM
same,GI50,NCI-H522 lung,20.8 µM
same,TGI,NCI-H522 lung,> 100 µM
same,GI50,BT-549 breast,0.14 µM
same,TGI,BT-549 breast,38.4 µM
same,GI50,OVCAR-3 ovarian,1.25 µM
same,TGI,OVCAR-3 ovarian,61.8 µM
same,GI50,UO-31 renal,2.38 µM
same,TGI,UO-31 renal,> 100 µM
same,GI50,IGROV1 ovarian,0.73 µM
same,TGI,IGROV1 ovarian,11.1 µM
same,GI50,RXF 393 renal,0.0251 µM
same,TGI,RXF 393 renal,0.973 µM
same,GI50,SK-MEL-28 melanoma,2.5 µM
same,TGI,SK-MEL-28 melanoma,> 100 µM
same,GI50,SK-MEL-5 melanoma,22.1 µM
same,TGI,SK-MEL-5 melanoma,> 76.8 µM
same,GI50,SR leukemia,21.9 µM
same,TGI,SR leukemia,> 100 µM
same,GI50,K-562 leukemia,67.2 µM
same,TGI,K-562 leukemia,> 100 µM
same,GI50,COLO 205 colon,7.09 µM
same,TGI,COLO 205 colon,51.1 µM
same,GI50,NCI-H226 lung,> 88.2 µM
same,TGI,NCI-H226 lung,> 100 µM
same,GI50,MDA-MB-231 breast,24.7 µM
same,TGI,MDA-MB-231 breast,> 100 µM
same,GI50,SNB-75 CNS,0.0398 µM
same,TGI,SNB-75 CNS,3.64 µM
same,TGI,A498 renal,< 0.0203 µM
